Measured values taken from US8895746B2 (University of Central Florida Research Foundation, Inc., priority 2009, dated 2014).
Read-outs that look alike come from different tables or passages of the source. Square brackets hold non-standard residues; d marks the D form. Ends that are not written are not given here. Peptide text beside a SMILES is read from it. pY = N[C@@H](Cc1ccc(OP(=O)(O)O)cc1)C(=O)O

Columns and labels:
Stat3 [1] = biological target: T1, Stat3 (Mus musculus, UniProt P42227); test: Fluorescence Polarization assay, Stat3 binding to 5-carboxyfluorescein-GpYLPQTV-NH2 probe; set-up: Coding regions for the murine Stat3 protein; made in house; host or cells: E. coli BL21(DE3); species or system murine
Experimental: (§1) Coding regions for the murine Stat3 protein and Stat3 SH2 domain were amplified by PCR and cloned into vectors pET-44 Ek/LIC (Novagen) and pET SUMO (Invitrogen), respectively.
Fluorescence Polarization (FP) Assay was conducted as previously reported (23), with some modification using the phospho-peptide, 5-carboxyfluorescein-GpYLPQTV-NH2 (phosphorylated SEQ ID NO:7) (where pY represents phospho-Tyr) as probe and Stat3. The FP assay was used to evaluate the binding of agents to Stat3 and to determine the ability to disrupt the Stat3:pTyr peptide interaction. A fixed concentration of the fluorescently-labeled peptide probe (10 nM) was incubated with increasing concentration of the Stat3 protein for 30 min at room temperature in the buffer, 50 mM NaCI, 10 mM HEPES, 1 mM EDTA, 0.1% Nonidet P-40, and the fluorescent polarization measurements were determined using the POLARstar Omega (BMG LABTECH, Durham, N.C.), with the set gain adjustment at 35 mP. The Z′ value was derived per the equation Z′=1−(3 SDbound+3 SD free)/(mPbound−mPfree), where SD is the standard deviation and mP is the average of fluorescence polarization. In the bound state, 10 nM 5-carboxyfluorescein-GpYLPQTV-NH2 (phosphorylated SEQ ID NO:7) was incubated with 150 nM purified Stat3 protein, while the free (unbound) state was the same mixture, but incubated with an additional 10 IJM unlabeled Ac-GpYLPQTV-NH2 (phosphorylated SEQ ID NO:7). For evaluating agents, Stat3 protein (150 nM) was incubated with serial concentrations of S31-201.1066 at 30° C. for 60 min in the indicated assay buffer conditions. Prior to the addition of the fluorescence probe, the protein:S31-201.1066 mixtures were allowed to equilibrate at room temperature for 15 min. Probe was added at a final concentration of 10 nM and incubated for 30 min at room temperature following which the FP measurements were taken using the POLARstar Omega, with the set gain adjustment at 35 mP.
The FP assay was used to further test the computational modeling prediction of the ability of S31-201.1066 to disrupt Stat3 interaction with its cognate pTyr peptide.

His-tagged Stat3 = biological target: T2, His-tagged Stat3 (Mus musculus, UniProt P42227); test: Surface Plasmon Resonance analysis of binding to immobilized His-tagged Stat3; set-up: species or system murine
T2 construct: Coding regions for the murine Stat3 protein; made in house; host or cells: E. coli BL21(DE3)
Excerpt: as §1
Clones were sequenced to verify the correct sequences and orientation. His-tagged recombinant proteins were expressed in BL21(DE3) cells, and purified on Ni-ion sepharose column.
SensiQ and its analysis software Qdat (ICX Technologies, Oklahoma City, Okla.) were used to analyze the interaction between agents and the Stat3 protein and to determine the binding affinity. Purified Stat3 was immobilized on a HisCap Sensor Chip by injecting 50 µg/ml of Stat3 onto the chip. […] The association and dissociation rate constants were calculated using the Qdat software. The ratio of the association and dissociation rate constants was determined as the affinity (KD).
To provide definitive evidence of direct binding to Stat3, biophysical studies were performed. H1s-tagged Stat3 protein (or SH2 domain; 50 ng) was immobilized on a Ni-NTA sensor chip surface for Surface Plasmon Resonance analysis of the binding of 531201.1066 as the analyte. Association and dissociation measurements were taken and the binding affinity of S31-201.1066 for Stat3 was determined using Qdat software.

Stat3 [2] = biological target: T1, Stat3; set-up: Coding regions for the murine Stat3 protein; made in house; host or cells: E. coli BL21(DE3); settings: cited from earlier work
Stat3 [3] = biological target: T1, Stat3; set-up: endogenous in cells; host or cells: NIH3T3/v-Src mouse fibroblasts (nuclear extract); settings: read-out: IC50, disruption of Stat3 DNA-binding activity in vitro; previously reported (22); cited from earlier work
Stat3 [4] = biological target: T1, Stat3; test: Stat3 DNA-binding assay in vitro (EMSA, hSIE probe), nuclear extracts of NIH3T3/v-Src; type: biochemical; set-up: endogenous in cells; host or cells: NIH3T3/v-Src mouse fibroblasts (nuclear extract); settings: 30 min pre-incubation at room temperature, read-out: IC50, inhibition of Stat3 DNA-binding activity in vitro
Experimental: Nuclear extract preparations and electrophoretic mobility shift assay (EMSA) were carried out as previously described (28,33). […] Except where indicated, nuclear extracts were pre-incubated with compound for 30 min at room temperature prior to incubation with the radiolabeled probe for 30 min at 30° C. before subjecting to EMSA analysis.

[5] = tested on: NIH3T3/v-Src, MDA-MB-231 and Panc-1 cells; settings: previously reported (18); cited from earlier work

T1 sequence (P42227 whole entry, the tested form may be a part): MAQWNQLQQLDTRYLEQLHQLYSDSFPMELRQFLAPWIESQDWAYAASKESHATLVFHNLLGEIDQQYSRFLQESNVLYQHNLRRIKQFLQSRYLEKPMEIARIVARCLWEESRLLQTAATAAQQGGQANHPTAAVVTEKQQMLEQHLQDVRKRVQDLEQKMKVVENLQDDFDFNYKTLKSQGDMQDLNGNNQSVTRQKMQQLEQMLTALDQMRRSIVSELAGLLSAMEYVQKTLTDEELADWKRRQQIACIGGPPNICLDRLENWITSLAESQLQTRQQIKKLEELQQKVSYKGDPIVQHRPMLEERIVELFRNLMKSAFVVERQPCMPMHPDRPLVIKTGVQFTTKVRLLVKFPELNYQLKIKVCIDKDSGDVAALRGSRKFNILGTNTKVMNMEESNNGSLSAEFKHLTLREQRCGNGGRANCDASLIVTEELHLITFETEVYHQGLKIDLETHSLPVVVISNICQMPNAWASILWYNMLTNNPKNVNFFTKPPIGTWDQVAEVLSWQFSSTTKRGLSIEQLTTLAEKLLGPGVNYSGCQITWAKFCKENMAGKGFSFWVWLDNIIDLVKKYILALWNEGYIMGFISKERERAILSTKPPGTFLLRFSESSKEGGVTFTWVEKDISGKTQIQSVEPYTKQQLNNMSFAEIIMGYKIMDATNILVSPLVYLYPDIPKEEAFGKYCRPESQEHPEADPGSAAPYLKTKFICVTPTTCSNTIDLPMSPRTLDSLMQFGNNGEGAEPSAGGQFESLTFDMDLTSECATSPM
T2 sequence (P42227 whole entry): as the sequence (P42227 whole entry, the tested form may be a part) above

Compound: CC(C)C[C@H](NC(=O)[C@H](Cc1ccc(OP(=O)(O)O)cc1)NC(=O)CN)C(=O)N1CCC[C@H]1C(=O)N[C@@H](CCC(N)=O)C(=O)N[C@H](C(=O)N[C@H](C(N)=O)C(C)C)[C@@H](C)O [GpYLPQTV-NH2] (H-G[pY]LPQTV-NH2)
- IC50 (Stat3 [1]; 150 nM Stat3, 10 nM probe, read-out: IC50, disruption of Stat3 binding to pTyr peptide probe): 0.3 µM
- Kd (His-tagged Stat3): 0.024 µM
- IC50 (Stat3 [2]; read-out: IC50, reported, reported (21)): 0.29 ± 0.063 µM
- IC50 (Stat3 [2]; read-out: IC50 in FP assay, previously reported value, previously reported (23)): 0.25 ± 0.03 µM
- Kd (Stat3 [2]; read-out: affinity for Stat3, reported, reported (23)): 0.15 ± 0.01 µM
- IC50 (Stat3 [3]): 0.15 µM

Compound: Cc1ccc(S(=O)(=O)N(C)CC(=O)N(Cc2ccc(C3CCN(c4ccc(C#N)cc4)CC3)cc2)c2ccc(C(=O)O)c(O)c2)cc1 [S3I-201.2096]
- IC50 (Stat3 [4]): 45 µM

Compound: Cc1ccc(S(=O)(=O)OCC(=O)Nc2ccc(C(=O)O)c(O)c2)cc1 [S3I-201]
- concentration of antitumor cell activity previously reported for the lead agent [5]: 100 µM

Compound: GYLPQTV-NH2 [reference compound]
- effect on the fluorescent polarization signal (Stat3 [1]; data not shown): no evidence of effect
- binding to Stat3 (SPR) (His-tagged Stat3; SPR, immobilized His-Stat3): little evidence of significant binding
